Among the data in patent US20240148821A1, “PHARMACEUTICAL USE OF CYCLIC PEPTIDE COMPOUND” (CHUGAI SEIYAKU KABUSHIKI KAISHA, priority 2021, published 2024) are IC50 values, retold here.

The structures appear in SMILES notation. Numbered stars: 1 amine (or outer) side, 2 acyl side, 3 side chain; on linkers, the order of the positions; unused ones are H or OH. Bridge positions count the residues as written; N and C are the ends. Square brackets hold non-standard residues; d marks the D form. Peptide text beside a SMILES is read from it. * marks the point of attachment. hPhe(3,5-F2-4-CF3) = N[C@@H](CCc1cc(F)c(C(F)(F)F)c(F)c1)C(=O)O; hPhe(3-Cl-4-CF3) = N[C@@H](CCc1ccc(C(F)(F)F)c(Cl)c1)C(=O)O; hPhe(3-OMe-4-CF3) = COc1cc(CC[C@H](N)C(=O)O)ccc1C(F)(F)F; NMePhe(4-CF3) = CN[C@@H](Cc1ccc(C(F)(F)F)cc1)C(=O)O; NMePhe(4-Me) = CN[C@@H](Cc1ccc(C)cc1)C(=O)O; NMedβ3hAla = C[C@H](CC(=O)[*:2])N(C)[*:1]; NMeNva(5,5-F2) = CN[C@@H](CCC(F)F)C(=O)O; NMeGly(cPent) = CN[C@H](C(=O)O)C1CCCC1; NMe4Pal = CN[C@@H](Cc1ccncc1)C(=O)O; NMeCha = CN[C@@H](CC1CCCCC1)C(=O)O; NMeChg = CN[C@H](C(=O)O)C1CCCCC1; NMeI = CC[C@H](C)[C@H](NC)C(=O)O; NMeD = CN[C@@H](CC(=O)O)C(=O)O; NMeL = CN[C@@H](CC(C)C)C(=O)O; NMeNva = CCC[C@H](NC)C(=O)O; Morpholide = C1CN(*)CCO1; NMeA = CN[C@@H](C)C(=O)O; Piperidide = C1CCN(*)CC1; Pyrrolidide = C1CCN(*)C1; Ac5c = NC1(C(=O)O)CCCC1; Aze = O=C(O)[C@@H]1CCN1; Sar = CNCC(=O)O A value given as a limit tells only on which side of the number the result lay.

The target in one assay is protein-protein interaction between Kras and SOS1 (biotin-tagged human Kras loaded with GDP, His-tagged human SOS1) (Homo sapiens (Human), UniProt P01116, G12D). The assay can be described thus: Protein-protein interaction inhibition between Kras and SOS1 (KrasG12D-SOS PPI) using AlphaScreen.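 Note: kras produced in E. coli, Ni-coupled donor beads and streptavidin acceptor beads, excitation 680 nm with emission detected at 520–620 nm via singlet oxygen transfer.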 Conditions: AlphaScreen; biotin-tagged human Kras loaded with GDP, His-tagged human SOS1; read-out: KRAS G12D-SOS PPI IC50. In kind it is biochemical.
For `CC[C@H](C)[C@@H]1NC(=O)[C@H](CC(C)C)N(C)C(=O)C[C@@H](C)N(C)C(=O)[C@H](C2CCCCC2)N(C)C(=O)C2(CCCC2)NC(=O)[C@@H]2CCCN2C(=O)[C@H](CCc2cc(F)c(C(F)(F)F)c(F)c2)NC(=O)CN(C)C(=O)[C@H](Cc2ccc(C(F)(F)F)cc2)N(C)C(=O)[C@@H]2CCN2C(=O)[C@H](C)N(C)C1=O` [Compound 39] (cyclo([Ac5c][NMeChg][NMedβ3hAla][NMeL]I[NMeA][Aze][NMePhe(4-CF3)][Sar][hPhe(3,5-F2-4-CF3)]P)), the IC50 worked out at 11 nM.

In a further assay the test system is Human pancreatic cancer cell line AsPC-1 (G12D mutation Kras). In words: AsPC-1 cell growth inhibition (AsPC-1 CGI). Type of assay: cell-based. Conditions: read-out: AsPC-1 cell growth inhibition, 50% growth inhibitory concentration (IC50 value); 96 hours, CellTiter-Glo, values classified in ranges. Background: Cellular ATP, detected with luciferase, serves as a proxy for viable cell number.
Description: Test compounds were serially dilated with dimethyl sulfoxide, and 200 nL was then dispensed to a U-bottom 96-well plate using Labcyte Echo. […] The cell suspension was dispensed to a. plate containing a test compound at 100 μL per well and incubated at 37° C. in a 5% carbon dioxide gas incubator. 96 hours later, 80 μL of CellTiter-Glo (Promega) was added to each well and fluorescence was measured.
Regarding `CC[C@H](C)[C@@H]1NC(=O)[C@H](CC(C)C)N(C)C(=O)C[C@@H](C(=O)N(C)C)N(C)C(=O)[C@H]([C@@H](C)CC)N(C)C(=O)[C@H](C(C)C)NC(=O)[C@H](Cc2ccncc2)N(C)C(=O)[C@H](CCc2ccc(C(F)(F)F)c(Cl)c2)NC(=O)CN(C)C(=O)[C@H](Cc2ccc(C)cc2)N(C)C(=O)[C@@H]2CCN2C(=O)[C@H](C)N(C)C1=O` [Compound 1897] ([NMeL]I[NMeA][Aze][NMePhe(4-Me)][Sar][hPhe(3-Cl-4-CF3)][NMe4Pal]V[NMeI][NMeD]-NMe2; lactam N-11), the IC50 is more than 500 nM.
Turning to `CC[C@H](C)[C@@H]1NC(=O)[C@H](CC(C)C)N(C)C(=O)C[C@@H](C(=O)N(C)C)N(C)C(=O)[C@H]([C@@H](C)CC)N(C)C(=O)C2(CCCC2)NC(=O)[C@H](CCC(F)F)N(C)C(=O)[C@H](CCc2ccc(C(F)(F)F)c(Cl)c2)NC(=O)CN(C)C(=O)[C@H](Cc2ccc(C)cc2)N(C)C(=O)[C@@H]2CCN2C(=O)[C@H](C)N(C)C1=O` [Compound 1898] ([NMeL]I[NMeA][Aze][NMePhe(4-Me)][Sar][hPhe(3-Cl-4-CF3)][NMeNva(5,5-F2)][Ac5c][NMeI][NMeD]-NMe2; lactam N-11), the IC50 was not above 20 nM.
Same read-out and setting: the result for `CC[C@H](C)[C@@H]1NC(=O)[C@H](CC(C)C)N(C)C(=O)C[C@@H](C(=O)N(C)C)N(C)C(=O)[C@H]([C@@H](C)CC)N(C)C(=O)C2(CCCC2)NC(=O)[C@H](Cc2ccncc2)N(C)C(=O)[C@H](CCc2ccc(C(F)(F)F)c(Cl)c2)NC(=O)CN(C)C(=O)[C@H](Cc2ccc(C)cc2)N(C)C(=O)[C@@H]2CCN2C(=O)[C@H](C)N(C)C1=O` [Compound 1962] ([NMeL]I[NMeA][Aze][NMePhe(4-Me)][Sar][hPhe(3-Cl-4-CF3)][NMe4Pal][Ac5c][NMeI][NMeD]-NMe2; lactam N-11) reads not above 20 nM; that for `CC[C@H](C)[C@@H]1NC(=O)[C@H](CC(C)C)N(C)C(=O)C[C@@H](C(=O)N(C)C)N(C)C(=O)[C@H]([C@@H](C)CC)N(C)C(=O)[C@H](C)NC(=O)[C@H](Cc2ccncc2)N(C)C(=O)[C@H](CCc2ccc(C(F)(F)F)c(Cl)c2)NC(=O)CN(C)C(=O)[C@H](Cc2ccc(C)cc2)N(C)C(=O)[C@@H]2CCN2C(=O)[C@H](C)N(C)C1=O` [Compound 1973] ([NMeL]I[NMeA][Aze][NMePhe(4-Me)][Sar][hPhe(3-Cl-4-CF3)][NMe4Pal]A[NMeI][NMeD]-NMe2; lactam N-11), more than 500 nM.
Same read-out and setting: the result for `CC[C@H](C)[C@@H]1NC(=O)[C@H](CC(C)C)N(C)C(=O)C[C@@H](C(=O)N2CCOCC2)N(C)C(=O)[C@H]([C@@H](C)CC)N(C)C(=O)C2(CCCC2)NC(=O)[C@@H]2CCCN2C(=O)[C@H](CCc2ccc(C(F)(F)F)c(Cl)c2)NC(=O)CN(C)C(=O)[C@H](CC2CCCCC2)N(C)C(=O)CN(C)C(=O)CN(C)C1=O` [Compound 1979] ([NMeL]I[Sar][Sar][NMeCha][Sar][hPhe(3-Cl-4-CF3)]P[Ac5c][NMeI][NMeD]-Morpholide; lactam N-11) reads not above 20 nM.
On the same count and under the same terms, the result for `CC[C@H](C)[C@@H]1NC(=O)[C@H](CC(C)C)N(C)C(=O)C[C@@H](C(=O)N(C)C)N(C)C(=O)[C@H](C2CCCC2)N(C)C(=O)[C@H](C(C)C)NC(=O)[C@H](Cc2ccncc2)N(C)C(=O)[C@H](CCc2ccc(C(F)(F)F)c(Cl)c2)NC(=O)CN(C)C(=O)[C@H](CC2CCCCC2)N(C)C(=O)[C@@H]2CCN2C(=O)[C@H](C)N(C)C1=O` [Compound 1982] ([NMeL]I[NMeA][Aze][NMeCha][Sar][hPhe(3-Cl-4-CF3)][NMe4Pal]V[NMeGly(cPent)][NMeD]-NMe2; lactam N-11) reads more than 500 nM; that for `CCC[C@H]1C(=O)N[C@@H]([C@@H](C)CC)C(=O)N(C)CC(=O)N(C)CC(=O)N(C)[C@@H](CC2CCCCC2)C(=O)N(C)CC(=O)N[C@@H](CCc2ccc(C(F)(F)F)c(Cl)c2)C(=O)N2CCC[C@H]2C(=O)NC2(CCCC2)C(=O)N(C)[C@@H](C2CCCCC2)C(=O)N(C)[C@H](C(=O)N2CCCC2)CC(=O)N1C` [Compound 2001] ([NMeNva]I[Sar][Sar][NMeCha][Sar][hPhe(3-Cl-4-CF3)]P[Ac5c][NMeChg][NMeD]-Pyrrolidide; lactam N-11), not above 20 nM.
In the case of `CC[C@H](C)[C@@H]1NC(=O)[C@H](CC(C)C)N(C)C(=O)C[C@@H](C(=O)N2CCCCC2)N(C)C(=O)[C@H](C2CCCC2)N(C)C(=O)C2(CCCC2)NC(=O)[C@@H]2CCCN2C(=O)[C@H](CCc2ccc(C(F)(F)F)c(OC)c2)NC(=O)CN(C)C(=O)[C@H](CC2CCCCC2)N(C)C(=O)[C@@H]2CCN2C(=O)[C@H](C)N(C)C1=O` [Compound 2080] ([NMeL]I[NMeA][Aze][NMeCha][Sar][hPhe(3-OMe-4-CF3)]P[Ac5c][NMeGly(cPent)][NMeD]-Piperidide; lactam N-11 (inferred); C-terminus assumed), the IC50 was not above 20 nM.
